In publication PMC4370505 (PLoS ONE, 2015):

What was measured:
[1] = In vitro metabolism in rat liver microsomes with UDPA; type: in vitro ADME; details: rat liver microsomes with UGT reaction mixture, 37°C
Method: Incubations of test substances in reaction mixtures without microsomes were used as a control. All samples were protected against light during the experiments.

[2] = Single dose intravenous pharmacokinetic study in Wistar rats; type: in vivo; details: 10 mg/kg
Method: Pharmacokinetic studies were conducted with male Wistar rats. Rats were acclimatized and housed at 22°C under 12h light/dark cycle with free access to sterilized commercial food pellets and water in the animal research facility (Curtin University) for at least 3 days prior to experiments. All animal experiments were approved by the Animal Ethics Committee of Curtin University (Approval no: R37–10 Amendment Approval No: A47–10 and A56–10) and were performed according to the Australian Code of Practice for the care and use of animals for scientific purposes. In order to minimize pain and suffering, the dosing and bleeding procedures were conducted under anesthesia (isoflurane at 5% for the induction and 2% for the maintenance, in combination with 1.5% oxygen). At the end of the study, rats were scarified by anesthetic euthanasia using 5% isofluorane with 1.5% oxygen. […] Blood (300 μL) was collected from the tail vein at 0.08, 0.5, 1, 2 and 4 hours into EDTA coated tubes. The blood samples were immediately stored in ice and protected from light until centrifuged (12000 × g at 4°C for 10 min). […] Metabolites were identified using LC-MS/MS (Applied Biosystems, 4000 QTRAP, Toronto, Canada).
Data analysis and representation (mean ± SD) were performed with SigmaPlot version 12 (Systat Software, Inc., Chicago, IL). Pharmacokinetic analysis was performed using Kinetica Version 5.0 (Thermo Fisher Scientific, Inc., Waltham, MA). Non compartmental analysis of the plasma concentration-time data was used to estimate the area under the curve (AUC0-∞; log-linear trapezoidal method), elimination half-life (t½), apparent clearance (CL; Dose÷AUC0-∞), mean residence time (MRT) and volume of distribution (Vss; CL×MRT). Statistical analysis of pharmacokinetic parameters was performed using unpaired t-test with Graphpad Prism software (version 6.05). Pharmacokinetic parameters obtained for each group were analyzed against the resveratrol group and p values were reported.

[3] = cited from earlier work
[4] = design: method as in PMID 18501919; details: cited from earlier work
[5] = Stability of resveratrol-polymer conjugates in rat plasma; type: in vitro ADME; details: 37°C
Method: The MeO-PEGN-Succ-RSV, 2 kDa, 20 kDa and MeO-PEGO-Succ-RSV 2 kDa (MW quoted in the paper is the size of polymer only. Mw for RSV is 228 Da) at the 10 mg/mL were incubated in plasma at 37°C. […] Aliquots of plasma (0.1 mL) were withdrawn at regular intervals and mixed with acetonitrile (0.9 mL). The mixtures were centrifuged at 10,000 rpm for 5 minutes. The supernatant (0.25 mL) was diluted with water (0.25 mL) and analysed by HPLC [28]. All samples were protected against light during the experiments.

[6] = Behaviour of conjugates in aqueous solution (solubility / self-aggregation); type: physicochemical; details: up to 10 mg/mL
Method: A solution of 40 mg of MeO-PEG-PLAO-Succ-RSV conjugate in acetonitrile (2 mL) was prepared. The stock solution was diluted with water (4 mL). The acetonitrile was removed by bubbling inert nitrogen gas at room temperature in the dark. The final volume of micellar/nanoparticle dispersion was adjusted to the required volume with water. For pharmacokinetic studies, final concentration of conjugate in micelle dispersion was 10 mg/mL and for critical micellear concentration measurement, the dispersion was diluted accordingly to obtain a series concentration of conjugate in solution below and above the CMC. The micelles of MeO-PEGO-Succ-RSV were formed spontaneously after dispersing in water.

[7] = Stability of resveratrol-polymer conjugates in physiological relevant buffers; type: physicochemical; details: phosphate buffer 0.1M pH 7.4, 37°C
Method: Briefly, reversed phase chromatographic separation was employed for analysis with xxx column. The HPLC gradient system consisted of solvent A, buffer pH 7.0 with triethyl amine-formic acid (0.05 and 0.2% v/v in water) and solvent B, methanol. A 30 min linear gradient was programmed as follows: 0 min 5% B, 4 min 20% B, 7 min 20% B, 16 min 55% B, 18 min 55% B, 18.5 min 95% B, 23 min 95% B, 24 min 5% B. The flow rate was maintained at 1 mL/min and the injection volume was 50 μL. The HPLC analysis was performed at ambient temperature. Altech Apollo C18 150 X 4.6 mm, 5μ column was employed for seperation. This HPLC method was validated to precisely separate and quantify the trans-resveratrol in the analyte mixture. There was at least two min difference in retention times for the trans and cis isomers of resveratrol. The UV spectrum of the trans isomer is very different from the cis isomer, thus any change to the trans isomer could have been detected. Although quantification was performed using the fluorescence detector at an excitation wavelength of 320nm and emission at 400 nm, simultaneous UV chromatograms were also recorded for specificity and peak purity purposes.
A similar procedure was used to study the stability of MeO-PEG-PLAO-Succ-RSV in buffers; micelles were prepared as per section 2.8 and diluted 1:5 with buffer solutions and incubated at 37°C. […]

[8] = DPPH inhibition assay (in vitro antioxidant); type: biochemical; details: DPPH 1 x 10^-4M in methanol, 30 min, room temperature
Method: Final concentration of DPPH was maintained at 1 x 10^-4M. […] After 30 min incubation at room temperature, the absorbance of these solutions was determined at 518 nm using a Hewlett Packard 8452A, UV-VIS spectrophotometer (Waldbronn, Germany). […] The IC 50 values were determined from the plot of % DPPH remaining against concentration of RSV and its equivalent conjugates.

[9] = male, Wistar, rat, plasma, mean ± SD

**Q.** For `Oc1ccc(/C=C/c2cc(O)cc(O)c2)cc1` [Resveratrol, trans-Resveratrol], which “Time within which almost all was metabolized” value [1] is on record?
**A.** Its value is ≤ 10 min.

**Q.** What about the “Plasma concentration after two hours” value [2] of the same compound?
**A.** The value was “below the limit of detection”.

**Q.** What about the CL ([2]; mean ± SD) of the same compound?
**A.** Its CL is 20.1 ± 8.4 L/h/kg.

**Q.** What about the AUC(0-inf) [2, 9] of the same compound?
**A.** The AUC(0-inf) was 2.4 ± 0.7 µM·h.

**Q.** And the MRT [2, 9]?
**A.** Its MRT is 1.3 ± 1 h.

**Q.** What about the Vd ([2]; male, Wistar, rat, plasma, mean ± SD, read-out: Vss) of the same compound?
**A.** Its Vd is 26.8 ± 19.1 L/kg.

**Q.** What about the half-life ([2]; male, Wistar, rat, plasma, mean ± SD, read-out: t½ (converted)) of the same compound?
**A.** The half-life was 84 ± 54 min.

**Q.** What about the clearance ([2]; male, Wistar, rat, plasma, iv, mean ± SD) of the same compound?
**A.** Its clearance is 333 mL/min/kg.

**Q.** What about the “CL (previous reports)” value [3] of the same compound?
**A.** The value was 11 to 19 L/h/kg.

**Q.** And the “t½ (previous reports)” value [3]?
**A.** Its value is 1.3 h.

**Q.** For `CN(C)c1ccc(/N=N/c2ccccc2)cc1` [dimethyl yellow], which Aqueous solubility [4] is on record?
**A.** The Aqueous solubility was 13 mg/L.

**Q.** For “MeO-PEG succinyl ester resveratrol [MeO-PEGO-Succ-RSV 2 kDa]”, which “Plasma t1/2” value ([5]; rat plasma in vitro) is on record?
**A.** Its value is <5 min.

**Q.** And the “Intact conjugate detected by HPLC at initial time point” value ([5]; rat plasma, initial time point of 0 h)?
**A.** Its value is “almost no intact polymer conjugate was detected”.

**Q.** What about the “Behaviour in aqueous solution” value [6] of the same compound?
**A.** The value was “self-aggregated into polymeric micelles”.

**Q.** What about the “% Conjugate Remaining at 24 hr pH 7.4” value [7] of the same compound?
**A.** The value was ~65%.

**Q.** Which “IC 50 DPPH inhibition” value [8] does the source give for “α-methoxy poly(ethylene glycol)-co-polylactide succinyl ester resveratrol [MeO-PEG-PLAO-Succ-RSV 2 kDa]” here?
**A.** Its value is “similar”.

**Q.** Which “IC 50 DPPH inhibition” value [8] does the source give for “α-methoxy-ω-carboxylic acid poly(ethylene glycol) succinylamide resveratrol [MeO-PEGN-Succ-RSV 2 kDa]” here?
**A.** Its value is “similar”.
